What was measured:
Human recombinant PARP2 = Human recombinant PARP2 (Homo sapiens, UniProt Q9UGN5); experiment: RBC HotSpot PARP2 radioisotope-based filter binding assay; assay type: biochemical; conditions: 2.5 nM enzyme, histone H3, 10 μM 32P-NAD+; read-out: PARP2 IC50
Protocol: (§1) The following methods are for evaluating the in vitro biology properties of the test articles. • a. RBC HotSpot Poly(ADP-ribose) Polymerases 1 (PARP1) and Poly(ADP-ribose) Polymerases 2 (PARP2) Assays: The assay principle is radioisotope-based filter binding assay where incorporation of radioisotope-labeled NAD^+ into the substrate captured on filter is detected after washout free NAD^+. Data were analyzed using Excel and GraphPad Prism software for IC50 curve fits. Each assay was conducted with PJ34 as a positive control. • i. PARP1 assay: Human recombinant PARP1 at a final concentration of 2.5 nM was combined with histone H4 (20 μM) and test articles at various concentrations in reaction buffer (50 mM Tris-HCL, pH 8.0, 50 mM NaCl, 10 mM MgCl2, 1 mM DTT, 1% DMSO, and 20 μg/mL activated DNA). The solution was inoculated for 20 min at room temperature and the reaction initiated by adding [adenylate-^32P]-Nicotinamide Adenine Dinucleotide, ^32P-NAD^+ at a final concentration of 10 μM. After incubation for 2 hour at room temperature, the reaction mixture was filtered and washed with 0.75% phosphoric acid for radioactivity detection. • ii. PARP2 assay: Human recombinant PARP2 at a final concentration of 2.5 nM was combined with histone H3 (20 μM) and test articles at various concentrations in reaction buffer (50 mM Tris-HCL, pH 8.0, 50 mM NaCl, 10 mM MgCl2, 1 mM DTT, 1% DMSO, and 20 μg/mL activated DNA). The solution was inoculated for 20 min at room temperature and the reaction was initiated by adding [adenylate-^32P]-Nicotinamide Adenine Dinucleotide, ^32P-NAD^+ at a final concentration of 10 μM. After incubation for 2 hour at room temperature, the reaction mixture was filtered and washed with 0.75% phosphoric acid for radioactivity detection. • b. AR binding assay: AR in LNCaP cytosol was used for determining the binding affinity of test articles and the reference compound—progesterone (Sigma, Cat: E2785, St. Louis, MO). IC50s were determined using 8 concentrations/compound. Cytosol was plated at 200 μg/well (100 μL) into a 96-well conical polypropylene plate (Agilent, Cat: 5042-1385, Santa Clara, CA) and mixed with 3 μL of test compound. After adding 100 μL of ^3H-methyltrienolone (PerkinElmer, Cat: NET590250UC, San Jose, CA), the plate was sealed and shaken at 300 rpm at 4° C. for 24 hours. Post incubation, 100 μL of radioligand adsorption buffer containing 10 mM Tris-HCl, pH 7.4; 1.5 mM EDTA; 1 mM DTT; 0.25% charcoal; 0.0025% dextran was added to individual well. Plate was shaken for 15 min at 4′C followed by centrifugation at 3000 rpm for 30 min at 4° C. 150 μL of supernatant was transferred into scint-tube (PerkinElmer, Cat: 6000192) and mixed with 2 mL of Ultima Gold Cocktail (PerkinElmer, Cat: 6013329). Radioactivity was counted using a TriCarb 2910 TR scintillation counter (PerkinElmer). Inhibition of the radioactivity by test articles were calculated using the equation below: % Inhibition=(1−(Assay well−Average_LC)/(Average_HC−Average_LC))×100%.

Human recombinant PARP1 = Human recombinant PARP1 (Homo sapiens, UniProt P09874); experiment: RBC HotSpot PARP1 radioisotope-based filter binding assay; assay type: biochemical; conditions: 2.5 nM enzyme, histone H4, 10 μM 32P-NAD+; read-out: PARP1 IC50
Sequence of Human recombinant PARP1 (P09874 whole entry): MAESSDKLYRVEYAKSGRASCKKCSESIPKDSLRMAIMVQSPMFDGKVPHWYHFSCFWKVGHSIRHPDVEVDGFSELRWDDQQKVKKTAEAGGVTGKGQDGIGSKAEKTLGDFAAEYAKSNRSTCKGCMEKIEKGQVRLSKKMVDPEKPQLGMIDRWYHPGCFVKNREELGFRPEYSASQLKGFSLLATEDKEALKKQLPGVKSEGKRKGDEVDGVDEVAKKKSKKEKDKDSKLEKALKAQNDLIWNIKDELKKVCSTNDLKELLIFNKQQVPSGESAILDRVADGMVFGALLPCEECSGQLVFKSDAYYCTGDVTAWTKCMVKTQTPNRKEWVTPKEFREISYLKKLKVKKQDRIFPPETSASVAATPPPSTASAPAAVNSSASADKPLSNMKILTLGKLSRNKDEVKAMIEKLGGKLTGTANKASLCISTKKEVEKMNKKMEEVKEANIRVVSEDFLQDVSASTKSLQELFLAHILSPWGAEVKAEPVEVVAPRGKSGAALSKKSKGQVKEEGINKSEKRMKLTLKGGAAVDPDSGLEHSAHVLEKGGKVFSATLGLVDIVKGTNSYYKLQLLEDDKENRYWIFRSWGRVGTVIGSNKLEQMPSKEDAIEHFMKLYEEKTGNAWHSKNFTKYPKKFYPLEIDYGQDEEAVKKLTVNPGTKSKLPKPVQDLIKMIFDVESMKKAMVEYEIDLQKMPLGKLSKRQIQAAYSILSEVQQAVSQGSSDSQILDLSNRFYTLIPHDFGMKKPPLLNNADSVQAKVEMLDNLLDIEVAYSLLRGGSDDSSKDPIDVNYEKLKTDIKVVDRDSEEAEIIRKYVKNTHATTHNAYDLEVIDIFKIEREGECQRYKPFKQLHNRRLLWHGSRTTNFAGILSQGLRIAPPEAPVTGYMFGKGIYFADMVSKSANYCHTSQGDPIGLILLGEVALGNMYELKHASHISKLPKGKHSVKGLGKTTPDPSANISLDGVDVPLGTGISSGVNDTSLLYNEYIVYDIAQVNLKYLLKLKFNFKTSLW
Protocol: as §1

PC-3 cells = experiment: Cell proliferation assay (CellTiter Glo), PC-3; assay type: cell-based; conditions: Homo sapiens, PC-3, 168 h; cell growth inhibition, six or seven days total treatment; read-out: PC-3 IC50
Protocol: (§2) IC50 values were calculated and graphed using the model “log(inhibitor) vs. response—Variable slope” included in GraphPad Prism 5 (San Diego, CA). The Ki values were further calculated using the equation below where [L] was the radioligand concentration (1 nM) using in this study. Kd value was 0.332 nM. Ki=IC50/(1+[L]/Kd) c. AR transactivation: Human AR cloned into a CMV vector backbone was used for the transactivation study. HEK-293 cells were plated at 80,000 cells per well of a 24 well plate in DME+5% csFBS. Twenty four hours later, the cells were transfected using Lipofectamine (Invitrogen, Carlsbad, CA) with 0.25 μg GRE-LUC, 0.01 μg CMV-LUC (renilla luciferase) and 25 ng of the AR in OPTIMEM medium. The cells were treated 24 hrs after transfection with various ligands (10^−12 to 10^−5 M final concentrations) and luciferase assay were performed 48 hours after transfection. Firefly values were normalized to renilla luciferase values and the values were represented as relative light units (RLU). Agonist and antagonist assays for the test article were performed in the absence and in the combination with 0.1 nM R1881, respectively. Data were represented as EC50 (for agonists) and IC50 (for antagonists) obtained from four parameter logistics curve. Cell culture and proliferation assays: LNCaP, PC-3, 22RV1, MCF-7, HT-29, and HCT-116 cells were procured from American Type Culture Collection (ATCC). Cells were cultured in medium recommended by the ATCC. Cell culture medium was obtained from Fisher scientific (Waltham, MA) and serum was obtained from Hyclone (San Angelo, TX).
(§3) Cells were plated at varying density in the respective growth medium in 96 well plates. 24 hr later, cells were treated, in triplicate or quadruplicate, with test articles prepared in a range of concentrations by series dilution of DMSO stock solutions in growth medium and incubated for three to seven days. The number of viable 22RV1 and HT-29 cells was measured using CellTiter Glo assay (CTG, Promega, Madison, WI) after three days of treatment. The other types of cancer cells were re-treated at three or four days and the number of viable cells was measured using CTG assay after a total treatment time of six or seven days. Cell viability data were plotted using GraphPad Prism (GraphPad Software, Inc., San Diego, CA). In addition, a nonlinear regression model with a sigmoidal dose response and variable slope within GraphPad Prism was used to calculate the IC50 value of individual test articles. Additional cell proliferation assays: Other cancer cell lines are tested in a cell proliferation assay. For example, SK-OV-3 or OVCAR3 ovarian cancer cells are tested. […] The number of viable cells is measured using CellTiter Glo assay (CTG, Promega, Madison, WI) or similar. […]

HCT-116 cells = experiment: Cell proliferation assay (CellTiter Glo), HCT-116; assay type: cell-based; conditions: Homo sapiens, HCT-116, 168 h; cell growth inhibition, six or seven days total treatment; read-out: HCT-116 IC50
Protocol: as §2, §3

LNCaP cells = experiment: Cell proliferation assay (CellTiter Glo), LNCaP; assay type: cell-based; conditions: Homo sapiens, 168 h, cell growth inhibition, six or seven days total treatment, read-out: LNCaP IC50
Protocol: as §2
Cells were plated at varying density in the respective growth medium in 96 well plates. 24 hr later, cells were treated, in triplicate or quadruplicate, with test articles prepared in a range of concentrations by series dilution of DMSO stock solutions in growth medium and incubated for three to seven days. The number of viable 22RV1 and HT-29 cells was measured using CellTiter Glo assay (CTG, Promega, Madison, WI) after three days of treatment. The other types of cancer cells were re-treated at three or four days and the number of viable cells was measured using CTG assay after a total treatment time of six or seven days. Cell viability data were plotted using GraphPad Prism (GraphPad Software, Inc., San Diego, CA). In addition, a nonlinear regression model with a sigmoidal dose response and variable slope within GraphPad Prism was used to calculate the IC50 value of individual test articles. Additional cell proliferation assays: Other cancer cell lines are tested in a cell proliferation assay. For example, SK-OV-3 or OVCAR3 ovarian cancer cells are tested. Cells are cultured in medium recommended by the supplier (e.g., ATCC or JCRB Cell Bank), at 37° C. in a 5% CO2 environment. For the proliferation assay, cells are plated in the growth medium in 96 well plates. Seeding density is adjusted according to the cell type. 24 hr later, cells are treated, in triplicate or quadruplicate, with test articles prepared in a range of concentrations by series dilution of DMSO stock solutions in growth medium, and typically incubated for three to seven days, with test article-containing medium replaced after three or four days. The number of viable cells is measured using CellTiter Glo assay (CTG, Promega, Madison, WI) or similar. Cell viability data are plotted using GraphPad Prism (GraphPad Software, Inc., San Diego, CA). […]

22RV1 cells = experiment: Cell proliferation assay (CellTiter Glo), 22RV1; assay type: cell-based; conditions: Homo sapiens, 22Rv1, 72 h; cell growth inhibition, three days of treatment; read-out: 22RV1 IC50
Protocol: as §2
Cells were plated at varying density in the respective growth medium in 96 well plates. 24 hr later, cells were treated, in triplicate or quadruplicate, with test articles prepared in a range of concentrations by series dilution of DMSO stock solutions in growth medium and incubated for three to seven days. The number of viable 22RV1 and HT-29 cells was measured using CellTiter Glo assay (CTG, Promega, Madison, WI) after three days of treatment. The other types of cancer cells were re-treated at three or four days and the number of viable cells was measured using CTG assay after a total treatment time of six or seven days. Cell viability data were plotted using GraphPad Prism (GraphPad Software, Inc., San Diego, CA). In addition, a nonlinear regression model with a sigmoidal dose response and variable slope within GraphPad Prism was used to calculate the IC50 value of individual test articles. Additional cell proliferation assays: Other cancer cell lines are tested in a cell proliferation assay. For example, SK-OV-3 or OVCAR3 ovarian cancer cells are tested. Cells are cultured in medium recommended by the supplier (e.g., ATCC or JCRB Cell Bank), at 37° C. in a 5% CO2 environment. For the proliferation assay, cells are plated in the growth medium in 96 well plates. Seeding density is adjusted according to the cell type. 24 hr later, cells are treated, in triplicate or quadruplicate, with test articles prepared in a range of concentrations by series dilution of DMSO stock solutions in growth medium, and typically incubated for three to seven days, with test article-containing medium replaced after three or four days. The number of viable cells is measured using CellTiter Glo assay (CTG, Promega, Madison, WI) or similar. Cell viability data are plotted using GraphPad Prism (GraphPad Software, Inc., San Diego, CA). In addition, a nonlinear regression model with a sigmoidal dose response and variable slope within GraphPad Prism is used to calculate the IC50 value of individual test articles. Similarly, HEK-293 and HeLa calls can also be tested by methods known in the art. • f. Nuclear translocation: LNCaP cells are plated on coverslips in 24 well plates in growth medium. Twenty-four hours after plating, medium is changed to RPMI+1% csFBS and the cells are maintained in this medium for two days. Medium is replaced again and the cells are treated. […]

Sequence of Human recombinant PARP2 (Q9UGN5 whole entry): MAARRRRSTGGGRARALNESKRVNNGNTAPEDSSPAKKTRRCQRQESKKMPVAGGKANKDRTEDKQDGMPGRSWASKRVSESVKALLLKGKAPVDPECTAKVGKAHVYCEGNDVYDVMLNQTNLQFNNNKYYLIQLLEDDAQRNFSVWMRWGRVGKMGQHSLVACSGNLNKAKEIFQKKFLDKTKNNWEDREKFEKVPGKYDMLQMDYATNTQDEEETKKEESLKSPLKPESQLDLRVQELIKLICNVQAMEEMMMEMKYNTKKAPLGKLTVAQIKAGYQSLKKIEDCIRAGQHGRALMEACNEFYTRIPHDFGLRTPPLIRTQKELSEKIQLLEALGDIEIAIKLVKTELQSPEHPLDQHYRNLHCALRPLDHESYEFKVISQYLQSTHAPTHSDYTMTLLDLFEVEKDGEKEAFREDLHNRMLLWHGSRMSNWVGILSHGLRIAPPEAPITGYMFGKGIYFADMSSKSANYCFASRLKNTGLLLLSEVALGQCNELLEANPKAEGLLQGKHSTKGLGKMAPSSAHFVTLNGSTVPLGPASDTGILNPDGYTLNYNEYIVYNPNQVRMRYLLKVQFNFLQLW

Structure (SMILES) | IC50 (Human recombinant PARP2) [nM] | IC50 (Human recombinant PARP1) [nM] | IC50 (PC-3 cells) [nM] | IC50 (HCT-116 cells) [nM] | IC50 (LNCaP cells) [nM] | IC50 (22RV1 cells) [nM]
C[C@]12CCCC[C@@H]1CC[C@@H]1[C@@H]2CC[C@]2(C)[C@@H](OCCCCCC(=O)N3CCN(C(=O)c4cc(Cc5n[nH]c(=O)c6ccccc56)ccc4F)CC3)CC[C@@H]12 [Compound 1.115] | 1.5 | 25.7 |  |  |  | 
Cn1ncnc1[C@H]1c2n[nH]c(=O)c3cc(F)cc(c23)N[C@@H]1c1ccc(NC(=O)CCCCCNC(=O)c2ccc(N3C(=S)N(c4ccc(C#N)c(C(F)(F)F)c4)C(=O)C3(C)C)cc2F)cc1 [Compound 1.3, 4-(3-(4-cyano-3-(trifluoromethyl)phenyl)-5,5-dimethyl-4-oxo-2-thioxoimidazolidin-1-yl)-2-fluoro-N-(6-((4-((8S,9R)-5-fluoro-9-(1-methyl-1H-1,2,4-triazol-5-yl)-3-oxo-2,7,8,9-tetrahydro-3H-pyrido[4,3,2-de]phthalazin-8-yl)phenyl)amino)-6-oxohexyl)benzamide] | 0.5 | 2 | 8800 | > 30000 | 490 | 
C[C@]12CC[C@@H]3c4ccc(O)cc4CC[C@H]3[C@@H]1CC[C@@H]2OCCCCCC(=O)N1CCN(C(=O)c2cc(Cc3n[nH]c(=O)c4ccccc34)ccc2F)CC1 [Compound 2.2, 4-(4-fluoro-3-(4-(6-((8R,9S,13S,14S,17S)-3-hydroxy-13-methyl-7,8,9,11,12,13,14,15,16,17-decahydro-6H-cyclopenta[a]phenanthren-17-yloxy)hexanoyl)piperazine-1-carbonyl)benzyl)phthalazin-1(2H)-one] |  |  |  |  |  | 390
C[C@](O)(CS(=O)(=O)c1ccc(OCCCCCCN2CCN(C(=O)c3cc(Cc4n[nH]c(=O)c5ccccc45)ccc3F)CC2)cc1)C(=O)Nc1ccc(C#N)c(C(F)(F)F)c1 [Compound 1.96, (R)-N-(4-cyano-3-(trifluoromethyl)phenyl)-3-(4-(6-(4-(2-fluoro-5-((4-oxo-3,4-dihydrophthalazin-1-yl)methyl)benzoyl)piperazin-1-yl)hexyloxy)phenylsulfonyl)-2-hydroxy-2-methylpropanamide] | 0.5 | 6 |  |  |  | 
Cn1ncnc1[C@@H]1c2n[nH]c(=O)c3cc(F)cc(c23)N[C@H]1c1ccc(NC(=O)CCCCCNC(=O)c2ccc(N3C(=S)N(c4ccc(C#N)c(C(F)(F)F)c4)C(=O)C3(C)C)cc2F)cc1 [ent-1.3, 4-(3-(4-cyano-3-(trifluoromethyl)phenyl)-5,5-dimethyl-4-oxo-2-thioxoimidazolidin-1-yl)-2-fluoro-N-(6-((4-((8R,9S)-5-fluoro-9-(1-methyl-1H-1,2,4-triazol-5-yl)-3-oxo-2,7,8,9-tetrahydro-3H-pyrido[4,3,2-de]phthalazin-8-yl)phenyl)amino)-6-oxohexyl)benzamide] | 16 | 79 |  |  | > 100000 | 
Cn1ncnc1[C@H]1c2n[nH]c(=O)c3cc(F)cc(c23)N[C@@H]1c1ccc(NC(=O)CCCCCO[C@H]2CC[C@H]3[C@@H]4CC[C@H]5CC(=O)CC[C@]5(C)[C@H]4CC[C@]23C)cc1 [Compound 1.4, 6-(((5S,8R,9S,10S,13S,14S,17S)-10,13-dimethyl-3-oxohexadecahydro-1H-cyclopenta[a]phenanthren-17-yl)oxy)-N-(4-(5-fluoro-9-(1-methyl-1H-1,2,4-triazol-5-yl)-3-oxo-2,7,8,9-tetrahydro-3H-pyrido[4,3,2-de]phthalazin-8-yl)phenyl)hexanamide] | 0.4 | 2 | 20 | 110 | 90 | 

Reference: patent US12398121B2 (Nuvation Bio Inc., priority 2018, dated 2025)
